ChEMBL document CHEMBL4732103, “Development of Indoleamine 2,3-Dioxygenase 1 Inhibitors for Cancer Therapy and Beyond: A Recent Perspective” (J Med Chem, 2020)
Blank lines part the entries; values can stand above or below the compound they belong to.

Tests used:
[1] = target: Indoleamine 2,3-dioxygenase 1 (Mus musculus, UniProt P28776); assay: Inhibition of mouse IDO1 expressed in mouse P1.HTR cells assessed as inhibition of Kyn production incubated for 16 hrs by HPLC analysis; format: cell-based
Sequence of Indoleamine 2,3-dioxygenase 1 (Mus musculus, UniProt P28776) (P28776 whole entry): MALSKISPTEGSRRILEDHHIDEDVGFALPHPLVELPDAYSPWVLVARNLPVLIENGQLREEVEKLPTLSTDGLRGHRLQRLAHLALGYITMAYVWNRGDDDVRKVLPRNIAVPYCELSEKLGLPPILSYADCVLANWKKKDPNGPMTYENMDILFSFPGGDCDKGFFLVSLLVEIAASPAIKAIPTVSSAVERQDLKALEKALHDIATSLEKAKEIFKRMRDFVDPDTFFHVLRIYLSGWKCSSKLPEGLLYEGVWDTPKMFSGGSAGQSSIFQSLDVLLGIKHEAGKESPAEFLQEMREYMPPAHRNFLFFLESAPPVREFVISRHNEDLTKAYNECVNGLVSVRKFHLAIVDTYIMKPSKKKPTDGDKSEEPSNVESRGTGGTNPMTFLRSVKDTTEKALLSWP

[2] = target: T1, Indoleamine 2,3-dioxygenase 1 (Homo sapiens, UniProt P14902); assay: Inhibition of recombinant human IDO1 expressed in Escherichia coli BL21(DE3) incubated for 15 mins by Dixon plot analysis
T1 sequence (P14902 whole entry): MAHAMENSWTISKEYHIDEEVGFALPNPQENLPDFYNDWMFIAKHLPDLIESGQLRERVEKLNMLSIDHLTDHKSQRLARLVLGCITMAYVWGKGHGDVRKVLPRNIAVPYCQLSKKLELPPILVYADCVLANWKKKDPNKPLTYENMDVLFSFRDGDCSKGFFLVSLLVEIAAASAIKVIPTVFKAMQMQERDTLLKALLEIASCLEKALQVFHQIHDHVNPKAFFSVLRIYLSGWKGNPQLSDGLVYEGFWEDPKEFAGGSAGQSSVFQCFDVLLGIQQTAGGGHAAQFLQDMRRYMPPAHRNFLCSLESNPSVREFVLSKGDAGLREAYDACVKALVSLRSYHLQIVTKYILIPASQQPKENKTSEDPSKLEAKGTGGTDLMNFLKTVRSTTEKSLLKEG

[3] = target: Tryptophan 2,3-dioxygenase (Homo sapiens, UniProt P48775); assay: Inhibition of recombinant human TDO expressed in Escherichia coli Rosetta (DE3) pLysS incubated for 20 mins by Dixon plot analysis
Sequence of Tryptophan 2,3-dioxygenase (P48775 whole entry): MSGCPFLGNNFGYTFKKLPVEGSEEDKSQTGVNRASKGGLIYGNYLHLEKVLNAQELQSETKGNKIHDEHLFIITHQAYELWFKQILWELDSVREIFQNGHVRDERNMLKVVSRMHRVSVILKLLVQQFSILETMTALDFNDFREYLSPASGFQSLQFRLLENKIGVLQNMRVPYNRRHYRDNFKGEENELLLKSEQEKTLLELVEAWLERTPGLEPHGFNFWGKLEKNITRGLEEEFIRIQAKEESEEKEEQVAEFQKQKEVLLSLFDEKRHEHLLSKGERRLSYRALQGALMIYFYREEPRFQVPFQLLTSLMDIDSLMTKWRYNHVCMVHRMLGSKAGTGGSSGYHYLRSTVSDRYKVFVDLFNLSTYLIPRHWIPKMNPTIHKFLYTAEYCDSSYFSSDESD

[4] = target: T1, Indoleamine 2,3-dioxygenase 1; assay: Binding affinity to recombinant human IDO1 expressed in Escherichia coli BL21 incubated for 4 hrs by UV-Visible Spectroscopy
[5] = target: T1, Indoleamine 2,3-dioxygenase 1; assay: Inhibition of IDO1 in human HeLa cells; format: cell-based
[6] = target: T1, Indoleamine 2,3-dioxygenase 1; assay: Inhibition of human IDO1
HEK-293T = assay: Cytotoxicity against HEK293T cells; format: cell-based; conditions: Homo sapiens
[7] = target: T1, Indoleamine 2,3-dioxygenase 1; assay: Inhibition of human IDO1 incubated for 60 mins using L-tryptophan as substrate by absorbance method
[8] = target: T1, Indoleamine 2,3-dioxygenase 1; assay: Inhibition of IDO1 in IFN-gamma stimulated human HeLa cells assessed as effect on kynurenine level incubated for 48 hrs by p-dimethylaminobenzaldehyde based assay
[9] = target: T1, Indoleamine 2,3-dioxygenase 1; assay: Inhibition of human IDO1 using D-Trp as substrate by absorbance method
[10] = target: T1, Indoleamine 2,3-dioxygenase 1; assay: Inhibition of human IDO1 in IFN-stimulated human MDA-MB-231 cells preincubated for 48 hrs followed by L-tryptophan addition and measured after 5 hrs by UV-Vis spectrophotometric method; format: cell-based
[11] = target: T1, Indoleamine 2,3-dioxygenase 1; assay: Inhibition of human N-terminal His-tagged IDO1 expressed in Escherichia coli M15 incubated for 1 hr by UV-Vis spectrophotometric method
[12] = Cytotoxicity against human HeLa cells incubated for 48 hrs by MTT assay; format: cell-based
[13] = target: Protein cereblon/Indoleamine 2,3-dioxygenase 1 (Homo sapiens, UniProt P14902+Q96SW2); assay: Induction of CRBN-mediated IDO1 degradation in IFNgamma-stimulated human HeLa cells incubated for 24 hrs by Western blot analysis
Sequence of Protein cereblon/Indoleamine 2,3-dioxygenase 1 (P14902 whole entry): as the sequence (P14902 whole entry) above
Sequence of Protein cereblon/Indoleamine 2,3-dioxygenase 1 (Q96SW2 whole entry): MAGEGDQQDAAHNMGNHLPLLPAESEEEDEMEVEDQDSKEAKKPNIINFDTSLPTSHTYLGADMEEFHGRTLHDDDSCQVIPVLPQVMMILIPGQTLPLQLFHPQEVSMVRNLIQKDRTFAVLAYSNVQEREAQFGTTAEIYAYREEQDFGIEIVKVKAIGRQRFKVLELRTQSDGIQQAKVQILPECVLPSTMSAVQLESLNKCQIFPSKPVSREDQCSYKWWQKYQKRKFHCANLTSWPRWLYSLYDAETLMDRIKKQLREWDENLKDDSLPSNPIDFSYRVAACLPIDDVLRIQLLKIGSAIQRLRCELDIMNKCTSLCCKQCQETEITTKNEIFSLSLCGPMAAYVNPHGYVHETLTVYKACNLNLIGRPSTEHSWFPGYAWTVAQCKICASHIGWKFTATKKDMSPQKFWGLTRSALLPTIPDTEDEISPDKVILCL

[14] = target: T1, Indoleamine 2,3-dioxygenase 1; assay: Inhibition of recombinant human IDO1 expressed in Escherichia coli BL21(DE3) assessed as effect on kynurenine level using L-tryptophan as substrate incubated for 1 hr by Ehrlich's reagent based assay
[15] = target: T1, Indoleamine 2,3-dioxygenase 1; assay: Inhibition of IDO1 in human SK-OV-3 cells assessed as effect on KYN level using L-tryptophan as substrate incubated for 18 hrs by 4-(dimethylamino)benzaldehyde based absorbance method; format: cell-based
[16] = Inhibition of IDO1/TDO2 in human BT-549 cells assessed as suppression of kynurenine using L-tryptophan as substrate for 18 hrs by 4-(dimethylamino)benzaldehyde based absorbance method; format: cell-based; conditions: BT-549, 18 h
[17] = target: T1, Indoleamine 2,3-dioxygenase 1; assay: Inhibition of IDO1 in IFN-gamma stimulated human HeLa cells centrifuged for 10 mins
[18] = target: T1, Indoleamine 2,3-dioxygenase 1; assay: Inhibition of human 6His/FLAG-tagged/Avi/TEV-fused IDO1 expressed in Escherichia coli by absorbance method
[19] = target: T1, Indoleamine 2,3-dioxygenase 1; assay: Inhibition of IDO1 in IFN-gamma stimulated human HeLa cells assessed as effect on KYN level incubated for 48 hrs by rapidfire-mass spectrometry
[20] = target: T1, Indoleamine 2,3-dioxygenase 1; assay: Inhibition of human His6-tagged IDO1 expressed in Escherichia coli BL21 incubated for 90 mins using L-tryptophan as substrate by fluorescence assay
[21] = target: T1, Indoleamine 2,3-dioxygenase 1; assay: Inhibition of IDO1 in IFN-gamma stimulated human HeLa cells
[22] = target: T1, Indoleamine 2,3-dioxygenase 1; assay: Inhibition of IDO1 (unknown origin) by cell-based assay
[23] = target: T1, Indoleamine 2,3-dioxygenase 1; assay: Inhibition of IDO1 (unknown origin)

Compound: Clc1ccc(Nc2cn[nH]n2)cc1
- Kd [4]: 2.3 µM

Compound: O=C(O)C[C@H]1CNC(=S)c2cc(Br)c(Br)n21
- IC50 [7]: 92 µM

Compound: O=C(Cc1cccc(N(CCCl)CCCl)c1)NCCNc1nonc1/C(=N/O)Nc1ccc(F)c(Br)c1
- EC50 [8]: 0.27 µM
- IC50 [9]: 0.13 µM

Compound: NC(=O)c1n[nH]nc1-c1ccc(F)c(F)c1
- EC50 [10]: 0.074 µM
- IC50 [11]: 0.11 µM

Compound: O=C1CCC(N2C(=O)c3cccc(NCCOCCOCCOCCOCCOCCOCCOCCNCCNc4nonc4/C(=N/O)Nc4ccc(F)c(Br)c4)c3C2=O)C(=O)N1 (stereo not drawn)
- CC50 at 48 h [12]: 37.4 µM
- DC50 [13]: 2.84 µM

Compound: N#Cc1ccc(C(F)(F)F)c(SCC(=O)Nc2ccc(F)c(Cl)c2)n1
- IC50 [14]: 0.84 µM

Compound: NS(=O)(=O)NCCNC(=O)c1n[nH]nc1-c1ccc(F)cc1
- EC50 [10]: 0.074 µM
- IC50 [11]: 0.092 µM

Compound: CC(C)CN(CC(C)C)c1ccc([C@H](C)CC(=O)O)cc1NCNc1nc(C(F)(F)F)ns1
- IC50 [18]: 0.039 µM
- IC50 [19]: 0.0059 µM

Compound: Nc1nonc1/C(=N/O)N1Cc2ccccc2C1
- IC50 [21]: 1.57 µM

Compound: C[C@@H](NC(=O)c1ccc(F)cc1)c1ccc2c(c1)CCN2C(=O)C1CCOCC1 [LY-3381916]
- IC50 [22]: 0.007 µM

Compound: c1ccc2c(c1)[nH]c1cnccc12 [NORHARMANE]
- Ki [23]: 180 µM

Now from value to compound, other results behind:

- IC50 [1]: 11.4 µM
Compound: Cc1c(C)n(CC(O)CNc2ccccc2)c2ccccc12 (stereo not drawn)

- Ki [2]: 1 µM
- Ki [3]: 4 µM
Compound: O=C(c1ccccc1)C(c1ccccc1)C1(O)C(=O)Nc2c(Cl)cc(Cl)cc21 (stereo not drawn)

- IC50 [5]: 11.2 µM
- IC50 [6]: 0.13 µM
Compound: COC1=C(OC)C(=O)C(Nc2cccc(Br)c2)=CC1=O
- IC50 (HEK-293T): 28 µM

- IC50 [6]: 0.001 µM
Compound: O=C1c2nnn(Cc3ccccc3)c2C(=O)c2nnn(Cc3ccccc3)c21

- IC50 [8]: 1.01 µM
Compound: C=C1OC2=C(C(=O)c3ccccc3C2=O)C1(C)C

- IC50 [15]: > 40 µM
- IC50 [16]: 3.42 µM
Compound: CC1=C(CC(=O)c2sccc2C)C(=O)c2ccccc2C1=O

- IC50 [17]: 0.0026 µM
Compound: CC(C)CN(c1ccc(-c2c(C(=O)O)ccc3ccccc23)cc1NC(=O)Nc1ccc(Br)cc1F)C1CCCCC1

- IC50 [20]: 3 µM
Compound: O=C(CSc1nnc2scc(-c3ccccc3)n12)Nc1ccc2c(c1)OCO2
